Measurements: ChEMBL document CHEMBL5346964, “Discovery of LNP1892: A Precision Calcimimetic for the Treatment of Secondary Hyperparathyroidism” (J Med Chem, 2023)

What was measured:
Rattus norvegicus = assay: Effect on parathyroid hormone in po dosed overnight fasted Sprague-Dawley rat assessed as reduction in plasma PTH level measured after 0.5 to 6 hrs of post treatment by sandwich ELISA analysis; type: functional, organism-based; details: dose 3-30 mg/kg, time 0.5-6 hrs
[1] = biological target: T1, Extracellular calcium-sensing receptor (Homo sapiens, UniProt P41180); assay: Agonist activity at human CaSR expresssed in HEK293 cells in presence of glucose by Fluo4NW dye based FLIPR assay; type: functional, cell-based; details: read-out: EC50
T1 sequence (P41180 whole entry): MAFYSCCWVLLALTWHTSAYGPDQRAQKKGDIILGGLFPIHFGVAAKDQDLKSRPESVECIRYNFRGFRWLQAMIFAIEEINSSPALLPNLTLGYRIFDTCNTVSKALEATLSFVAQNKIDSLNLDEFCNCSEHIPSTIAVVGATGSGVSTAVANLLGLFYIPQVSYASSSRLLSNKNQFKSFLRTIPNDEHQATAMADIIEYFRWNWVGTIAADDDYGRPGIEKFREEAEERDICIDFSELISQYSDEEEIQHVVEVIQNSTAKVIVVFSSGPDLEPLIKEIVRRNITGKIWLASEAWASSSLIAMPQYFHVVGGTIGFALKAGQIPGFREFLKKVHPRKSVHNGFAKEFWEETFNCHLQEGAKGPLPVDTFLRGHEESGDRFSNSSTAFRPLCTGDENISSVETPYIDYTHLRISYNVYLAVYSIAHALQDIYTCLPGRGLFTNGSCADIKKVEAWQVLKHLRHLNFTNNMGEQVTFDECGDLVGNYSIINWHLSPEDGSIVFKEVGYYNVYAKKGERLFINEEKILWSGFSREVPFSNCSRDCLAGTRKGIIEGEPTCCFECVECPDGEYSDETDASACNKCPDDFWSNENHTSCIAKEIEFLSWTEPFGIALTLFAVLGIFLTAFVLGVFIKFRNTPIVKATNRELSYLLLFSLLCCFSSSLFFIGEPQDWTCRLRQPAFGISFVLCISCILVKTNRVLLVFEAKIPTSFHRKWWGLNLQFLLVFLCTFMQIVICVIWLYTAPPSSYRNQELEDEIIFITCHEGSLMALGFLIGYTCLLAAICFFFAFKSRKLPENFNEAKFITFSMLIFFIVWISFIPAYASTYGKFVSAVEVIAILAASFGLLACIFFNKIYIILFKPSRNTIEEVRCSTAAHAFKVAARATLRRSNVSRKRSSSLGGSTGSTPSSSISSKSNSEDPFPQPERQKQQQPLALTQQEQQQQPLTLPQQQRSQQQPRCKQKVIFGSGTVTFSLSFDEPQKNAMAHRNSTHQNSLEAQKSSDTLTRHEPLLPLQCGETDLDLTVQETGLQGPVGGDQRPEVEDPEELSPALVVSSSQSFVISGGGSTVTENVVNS

CYP2D6 [2] = biological target: T2, CYP2D6 (Homo sapiens, UniProt P10635); assay: Inhibition of CYP2D6 in human liver microsomes at 1 uM preincubated for 5 mins followed by NADPH addition by LC-MS/MS analysis relative to control; type: ADME, Microsome
CYP2D6 [3] = biological target: T2, CYP2D6; assay: Inhibition of CYP2D6 in human liver microsomes at 10 uM preincubated for 5 mins followed by NADPH addition by LC-MS/MS analysis relative to control; type: ADME, Microsome
[4] = biological target: T3, Voltage-gated inwardly rectifying potassium channel KCNH2 (Homo sapiens, UniProt Q12809); assay: (§1) Inhibition of hERG at 1 uM relative to control; type: toxicity; details: 1 µM
[5] = biological target: T3, Voltage-gated inwardly rectifying potassium channel KCNH2; assay: (§2) Inhibition of hERG at 10 uM relative to control; type: toxicity; details: 10 µM
[6] = Microsomal stability in rat liver microsomes assessed as parent compound remaining at 1 uM measured upto 30 mins in presence of NADPH by LC-MS/MS analysis; type: ADME, Microsome; details: read-out: Stability
[7] = Microsomal stability in human liver microsomes assessed as parent compound remaining at 1 uM measured upto 30 mins in presence of NADPH by LC-MS/MS analysis; type: ADME, Microsome; details: for Stability: microsomes, 0.5 h, 1 µM; for remaining at 0.5 h, 1 µM: liver microsomes, read-out: Stability
hERG [8] = biological target: T4, hERG (Homo sapiens, UniProt Q12809); assay: as §1; type: toxicity
hERG [9] = biological target: T4, hERG; assay: as §2; type: toxicity
[10] = AUClast in Sprague-Dawley rat at 0.3 mg/kg, iv measured upto 24 hrs by LC-MS/MS analysis; type: ADME, organism-based; design: dose 0.3 mg/kg, time < 24 hrs, route iv; details: in vivo
[11] = Half life in Sprague-Dawley rat at 0.3 mg/kg, iv measured upto 24 hrs by LC-MS/MS analysis; details: in vivo
[12] = Clearance in Sprague-Dawley rat at 0.3 mg/kg, iv measured upto 24 hrs by LC-MS/MS analysis; details: in vivo
[13] = Volume of distribution at steady state in Sprague-Dawley rat at 0.3 mg/kg, iv measured upto 24 hrs by LC-MS/MS analysis; details: in vivo
[14] = AUClast in Sprague-Dawley rat at 1 mg/kg, po measured upto 24 hrs by LC-MS/MS analysis; type: ADME, organism-based; design: dose 1 mg/kg, time < 24 hrs, route po; details: in vivo
[15] = Half life in Sprague-Dawley rat at 1 mg/kg, po measured upto 24 hrs by LC-MS/MS analysis; details: in vivo
in vivo [16] = details: Sprague-Dawley, rat, iv, 0.3 mg/kg
Description: Cmax in Sprague-Dawley rat at 0.3 mg/kg, iv measured upto 24 hrs by LC-MS/MS analysis

in vivo [17] = details: Sprague-Dawley, rat, po, 1 mg/kg
Description: Tmax in Sprague-Dawley rat at 1 mg/kg, po measured upto 24 hrs by LC-MS/MS analysis

in vivo [18] = details: Sprague-Dawley, rat, po, 1 mg/kg; remark: listed apart in the source
Description: Cmax in Sprague-Dawley rat at 1 mg/kg, po measured upto 24 hrs by LC-MS/MS analysis

[19] = Tmax in Sprague-Dawley rat at 1 mg/kg, iv measured upto 24 hrs by LC-MS/MS analysis; type: ADME, organism-based; details: in vivo
[20] = AUClast in Sprague-Dawley rat at 1 mg/kg, iv measured upto 24 hrs by LC-MS/MS analysis; type: ADME, organism-based; design: dose 1 mg/kg, time < 24 hrs, route iv; details: in vivo
[21] = Half life in Sprague-Dawley rat at 1 mg/kg, iv measured upto 24 hrs by LC-MS/MS analysis; type: ADME, organism-based; details: in vivo
[22] = Clearance in Sprague-Dawley rat at 1 mg/kg, iv measured upto 24 hrs by LC-MS/MS analysis; type: ADME, organism-based; details: in vivo
[23] = Volume of distribution at steady state in Sprague-Dawley rat at 1 mg/kg, iv measured upto 24 hrs by LC-MS/MS analysis; type: ADME, organism-based; details: in vivo, read-out: Vdss
[24] = Tmax in Sprague-Dawley rat at 10 mg/kg, po measured upto 24 hrs by LC-MS/MS analysis; type: ADME, organism-based; details: in vivo
[25] = Cmax in Sprague-Dawley rat at 10 mg/kg, po measured upto 24 hrs by LC-MS/MS analysis; type: ADME, organism-based; design: time < 24 hrs, dose 10 mg/kg, route po; details: in vivo
[26] = AUClast in Sprague-Dawley rat at 10 mg/kg, po measured upto 24 hrs by LC-MS/MS analysis; type: ADME, organism-based; design: dose 10 mg/kg, time < 24 hrs, route po; details: in vivo
[27] = Oral bioavailability in Sprague-Dawley rat at 10 mg/kg measured upto 24 hrs by LC-MS/MS analysis; type: ADME, organism-based; details: in vivo
[28] = Cmax in Sprague-Dawley rat at 1 mg/kg, iv measured upto 24 hrs by LC-MS/MS analysis; type: ADME, organism-based; design: dose 1 mg/kg, time < 24 hrs, route iv; details: in vivo
[29] = Effect on parathyroid hormone in overnight fasted Sprague-Dawley rat assessed as reduction in plasma PTH level at 10 mg/kg, po measured after 0.5 hrs of post treatment by sandwich ELISA analysis; type: functional; design: scale not given: the % may be the effect or the level left
[30] = Effect on parathyroid hormone in overnight fasted Sprague-Dawley rat assessed as reduction in plasma PTH level at 10 mg/kg, po measured after 2 hrs of post treatment by sandwich ELISA analysis; type: functional; design: scale not given: the % may be the effect or the level left
[31] = Effect on parathyroid hormone in overnight fasted Sprague-Dawley rat assessed as reduction in plasma PTH level at 10 mg/kg, po measured after 4 hrs of post treatment by sandwich ELISA analysis (reference value: 18%); type: functional; design: scale not given: the % may be the effect or the level left
[32] = Effect on parathyroid hormone in overnight fasted Sprague-Dawley rat assessed as reduction in plasma PTH level at 30 mg/kg, po measured after 4 hrs of post treatment by sandwich ELISA analysis; type: functional; design: scale not given: the % may be the effect or the level left
[33] = Effect on parathyroid hormone in overnight fasted Sprague-Dawley rat assessed as reduction in plasma PTH level at 30 mg/kg, po measured after 2 hrs of post treatment by sandwich ELISA analysis; type: functional; design: scale not given: the % may be the effect or the level left
[34] = Effect on parathyroid hormone in overnight fasted Sprague-Dawley rat plasma assessed as reduction in PTH level at 30 mg/kg, po measured after 0.5 hrs of post treatment by sandwich ELISA analysis; type: functional; design: scale not given: the % may be the effect or the level left
[35] = Effect on parathyroid hormone in overnight fasted Sprague-Dawley rat assessed as reduction in plasma PTH level at 10 mg/kg, po measured after 1 hrs of post treatment by sandwich ELISA analysis; type: functional; design: scale not given: the % may be the effect or the level left
[36] = Effect on parathyroid hormone in overnight fasted Sprague-Dawley rat assessed as reduction in plasma PTH level at 30 mg/kg, po measured after 1 hrs of post treatment by sandwich ELISA analysis; type: functional; design: scale not given: the % may be the effect or the level left

T3 sequence (Q12809 whole entry): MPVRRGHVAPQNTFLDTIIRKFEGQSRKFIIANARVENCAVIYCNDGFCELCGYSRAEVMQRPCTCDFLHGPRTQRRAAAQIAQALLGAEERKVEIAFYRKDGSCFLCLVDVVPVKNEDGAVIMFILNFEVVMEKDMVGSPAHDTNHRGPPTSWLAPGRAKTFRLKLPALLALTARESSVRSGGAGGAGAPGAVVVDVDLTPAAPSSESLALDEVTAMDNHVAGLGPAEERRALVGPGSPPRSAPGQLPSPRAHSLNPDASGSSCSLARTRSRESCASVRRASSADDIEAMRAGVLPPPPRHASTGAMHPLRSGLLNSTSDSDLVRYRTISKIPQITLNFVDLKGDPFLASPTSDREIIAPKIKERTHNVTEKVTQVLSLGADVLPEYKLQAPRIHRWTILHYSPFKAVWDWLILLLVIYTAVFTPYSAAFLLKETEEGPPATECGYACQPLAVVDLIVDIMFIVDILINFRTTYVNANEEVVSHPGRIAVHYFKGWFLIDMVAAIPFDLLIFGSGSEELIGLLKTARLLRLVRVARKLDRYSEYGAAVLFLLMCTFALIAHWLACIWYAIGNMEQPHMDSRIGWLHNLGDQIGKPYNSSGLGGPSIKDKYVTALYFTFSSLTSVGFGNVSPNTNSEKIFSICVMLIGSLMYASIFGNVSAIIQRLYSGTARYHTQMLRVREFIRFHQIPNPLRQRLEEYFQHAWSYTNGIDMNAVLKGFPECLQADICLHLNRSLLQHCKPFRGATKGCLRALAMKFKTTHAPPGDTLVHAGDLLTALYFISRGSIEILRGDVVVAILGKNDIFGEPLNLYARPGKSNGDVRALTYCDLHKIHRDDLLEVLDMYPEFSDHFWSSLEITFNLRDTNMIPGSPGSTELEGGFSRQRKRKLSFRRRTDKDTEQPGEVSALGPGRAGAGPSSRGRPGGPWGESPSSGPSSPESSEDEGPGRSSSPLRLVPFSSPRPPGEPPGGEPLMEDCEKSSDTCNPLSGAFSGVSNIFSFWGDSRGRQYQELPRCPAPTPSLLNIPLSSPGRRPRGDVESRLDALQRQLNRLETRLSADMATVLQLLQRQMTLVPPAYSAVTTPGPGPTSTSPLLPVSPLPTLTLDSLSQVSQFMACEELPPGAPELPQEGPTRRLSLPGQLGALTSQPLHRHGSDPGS
T4 sequence (Q12809 whole entry): as above
T2 sequence (P10635 whole entry): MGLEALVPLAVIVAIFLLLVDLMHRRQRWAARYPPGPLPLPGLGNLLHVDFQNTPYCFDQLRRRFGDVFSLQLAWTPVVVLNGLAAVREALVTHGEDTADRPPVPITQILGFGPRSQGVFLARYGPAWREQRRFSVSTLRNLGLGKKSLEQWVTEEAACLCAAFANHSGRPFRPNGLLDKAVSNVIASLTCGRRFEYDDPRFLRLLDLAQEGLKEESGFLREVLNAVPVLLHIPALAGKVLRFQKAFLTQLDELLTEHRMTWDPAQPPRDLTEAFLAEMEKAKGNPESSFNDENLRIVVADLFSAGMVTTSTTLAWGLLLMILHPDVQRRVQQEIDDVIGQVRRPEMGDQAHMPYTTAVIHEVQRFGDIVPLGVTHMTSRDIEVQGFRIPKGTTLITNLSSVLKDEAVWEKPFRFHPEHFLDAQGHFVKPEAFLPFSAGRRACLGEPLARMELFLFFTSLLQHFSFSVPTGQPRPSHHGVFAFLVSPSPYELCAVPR

Cc1ccc(N2CC(CN[C@H](C)c3cccc4ccccc34)Oc3ccccc32)cc1C(=O)O (some centres not stated)
Activity (Rattus norvegicus): Dose-Dependent Effect

Cc1c(C(=O)O)cccc1N1CC(CN[C@H](C)c2cccc3ccccc23)Oc2ccccc21.Cl (mixture of isomers; form 1)
EC50 [1]: 47.5 nM | inhibition at 1 µM (CYP2D6 [2]): 26% | inhibition at 10 µM (CYP2D6 [3]): 43% | inhibition (INH) [4]: -8% | inhibition (INH) [5]: -5% | remaining at 0.5 h, 1 µM [6]: 45% | Stability [7]: 40%

C[C@@H](NCC1CN(c2ccc(C(=O)O)cc2)c2ccccc2O1)c1cccc2ccccc12 (some centres not stated)
EC50 [1]: 64.9 nM | inhibition at 1 µM (CYP2D6 [2]): 65% | inhibition at 10 µM (CYP2D6 [3]): 65% | inhibition at 1 µM (hERG [8]): 5% | inhibition at 10 µM (hERG [9]): -43% | remaining at 0.5 h, 1 µM [6]: 28% | remaining at 0.5 h, 1 µM [7]: 34%

C[C@@H](NCC1CN(c2cccc(OCC(=O)O)c2)c2ccccc2O1)c1cccc2ccccc12 (some centres not stated)
EC50 [1]: 36.4 nM | inhibition at 1 µM (CYP2D6 [2]): 6% | inhibition at 10 µM (CYP2D6 [3]): 36% | inhibition at 1 µM (hERG [8]): 43% | inhibition at 10 µM (hERG [9]): 66% | remaining at 0.5 h, 1 µM [6]: 87% | remaining at 0.5 h, 1 µM [7]: 45%

C[C@@H](N[C@H]1CCN(c2ccc(CC(=O)O)cc2)C1)c1cccc2ccccc12 [EVOCALCET]
remaining at 0.5 h, 1 µM [6]: 34% | remaining at 0.5 h, 1 µM [7]: 68% | AUC(0-t) at 24 h [10]: 8.03 µM·h | half-life at 24 h [11]: 439 min | clearance at 24 h [12]: 1.67 mL/min/kg | Vd at 24 h [13]: 0.591 L/kg | AUC(0-t) at 24 h [14]: 23 µM·h | half-life at 24 h [15]: 368 min | Cmax at 24 h (in vivo [16]): 270 nM | Tmax at 24 h (in vivo [17]): 48.6 min | Cmax at 24 h (in vivo [18]): 5.84 µM

Cc1c(C(=O)O)cccc1N1CC(CN[C@H](C)c2cccc3ccccc23)Oc2ccccc21.Cl (mixture of isomers; form 2)
EC50 [1]: 49.5 nM | inhibition (INH) [4]: -28% | inhibition (INH) [5]: -16% | Stability [7]: 10%

Cc1ccc(N2CC(CN[C@H](C)c3cccc4ccccc34)Oc3ccccc32)cc1C(=O)O.Cl (some centres not stated)
EC50 [1]: 7 nM | inhibition at 1 µM (CYP2D6 [2]): 44% | inhibition at 10 µM (CYP2D6 [3]): 47% | inhibition at 1 µM (hERG [8]): 7% | inhibition at 10 µM (hERG [9]): 14% | remaining at 0.5 h, 1 µM [6]: 55% | remaining at 0.5 h, 1 µM [7]: 45% | Tmax [19]: 4.8 min | AUC(0-t) at 24 h [20]: 7 µM·h | half-life [21]: 180 min | clearance [22]: 5 mL/min/kg | Vd [23]: 1 L/kg | Tmax [24]: 3 min | Cmax [25]: 13 µM | AUC(0-t) at 24 h [26]: 55 µM·h | bioavailability [27]: 79% | Cmax [28]: 5 µM | Activity [29]: 100% | Activity [30]: 100% | Activity [31]: 66% | Activity [32]: 92% | Activity [33]: 100% | Activity [34]: 100% | Activity [35]: 86% | Activity [36]: 97%
